Reference: PubChem BioAssay (NCI)
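Five compound concentrations were applied to cells in 96-well plates for 48 hours; endpoints were derived by simple linear interpolation of the resulting dose-response curve. GI50 is the concentration that inhibits growth by half. TGI marks complete inhibition of growth.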 Non-standard residues stand in square brackets, D forms with d. Residues, ends and D or L forms follow the SMILES beside them. *: point of attachment. ONb = O=[N+]([O-])c1ccc(CO*)cc1; AllylGly = C=CC[CH](N)C(=O)O; Boc = CC(C)(C)OC(=O)*

How the values were obtained:
Experiment in all cases: growth of human tumour cells (NCI), 48 h
[1] = tested on: SK-MEL-2 melanoma
[2] = tested on: SN12C renal
[3] = tested on: 786-0 renal
[4] = tested on: CAKI-1 renal
[5] = tested on: CCRF-CEM leukemia
[6] = tested on: ACHN renal
[7] = tested on: IGROV1 ovarian
[8] = tested on: DU-145 prostate
[9] = tested on: HOP-62 NSCLC
[10] = tested on: MDA-MB-231 breast

Row | Structure (SMILES) | TGI [1] | TGI [2] [µM] | TGI [3] | TGI [4] | TGI [5] [µM] | TGI [6] | TGI [7] [µM] | GI50 [8] [µM] | TGI [8] [µM] | GI50 [1] | GI50 [2] | GI50 [3] | GI50 [9] [µM] | TGI [9] [µM] | GI50 [4] | GI50 [5] | GI50 [10] | TGI [10] [µM] | GI50 [6] | GI50 [7]
1 | Nn1c(-c2ccccc2)nc2ccc(Br)cc2c1=O | > 100 µM | > 100 | > 100 µM | > 100 µM | 76.4 | > 100 µM | > 100 | – | – | – | – | – | – | – | – | – | – | – | – | –
2 | N=C1C(c2nc(-c3ccc(Br)cc3)cs2)=C(O)CN1Cc1cccnc1 | 80.5 µM | > 100 | 34.3 µM | > 100 µM | 65.8 | 98.8 µM | – | 17.4 | 63.1 | 11.2 µM | 26.8 µM | 15.3 µM | 17.1 | > 100 | 35 µM | 4.28 µM | 15.9 µM | 43.5 | 16.4 µM | –
3 | CC(=O)C1CC(C)=CCC12C(=O)Nc1ccccc12 (stereo not drawn) | > 100 µM | > 100 | > 100 µM | > 100 µM | > 100 | > 100 µM | > 100 | – | – | – | – | – | – | > 100 | – | – | – | – | – | –
4 | COc1ccc2cc(C(=O)/C=C/c3cc(OC)c(OC)c(OC)c3)ccc2c1 | – | 8.78 | 15.7 µM | 28.3 µM | > 50 | 18.2 µM | 18.5 | 2.06 | 11.2 | – | 1.73 µM | 7.61 µM | 9.88 | 20.8 | 3.41 µM | > 50 µM | 1.02 µM | 15.8 | 7.17 µM | 5.49 µM
5 | O=C(O)CSc1n[nH]c(-c2ccc(O)cc2)n1 | > 100 µM | – | > 100 µM | > 100 µM | > 100 | > 100 µM | > 100 | – | – | – | – | – | – | > 100 | – | – | – | – | – | –
6 | COc1ccc(-c2nc3sc(C)cn3c2/C=C/C(=O)c2cc(OC)c(OC)c(OC)c2)cc1 | – | > 100 | > 100 µM | > 100 µM | > 100 | > 100 µM | 4.33 | 3.69 | > 100 | – | 4.07 µM | 5.31 µM | 4.28 | > 100 | 5.15 µM | 3.06 µM | 3.78 µM | > 100 | 4.13 µM | 1.65 µM
7 | O=C(O)c1c(-c2cccc3ccccc23)sc(-c2cccc3ccccc23)c1C(=O)O | > 100 µM | > 100 | > 100 µM | – | > 100 | > 100 µM | > 100 | – | – | – | – | – | – | – | – | – | – | – | – | –
8 | COc1cc(OC)c([C@@H]2OC(=O)C3C2C(=O)O[C@H]3c2cc(OC)c(OC)cc2OC)cc1OC (stereo partly drawn) | > 100 µM | > 100 | > 100 µM | > 100 µM | > 100 | > 100 µM | > 10 | – | – | – | – | – | – | > 100 | – | – | – | – | – | –
9 | CCOC(=O)[C@@]1(C)C=C2O[C@@H]3OC4(CCCCC4)O[C@@H]3C2=C2C(O)=CC=C(O)[C@]21C(=O)OC | > 68 µM | > 68 | > 68 µM | > 68 µM | > 68 | > 68 µM | > 68 | – | – | – | – | – | – | > 68 | – | – | – | – | – | –
10 | Cn1c2c(c3ccccc31)CCN(CCCCN1CCc3c(n(C)c4ccccc34)C1=O)C2 | > 100 µM | > 100 | > 100 µM | > 100 µM | > 100 | > 100 µM | > 100 | – | – | – | – | – | – | > 100 | – | – | – | – | – | –
11 | CNC(P(=O)([O-])[O-])P(=O)([O-])[O-].N.N.[Pt+2] | > 100 µM | > 100 | > 100 µM | > 100 µM | – | – | > 100 | – | – | > 100 µM | > 100 µM | > 100 µM | – | – | > 100 µM | – | – | – | – | > 100 µM
12 | Cc1cc(C)nc(NS(=O)(=O)c2ccc(Nc3c4ccccc4nc4c(C(=O)Nc5ccc(S(=O)(=O)N=C(N)N)cc5)ccc(Cl)c34)cc2)n1 | – | 80.9 | > 100 µM | > 100 µM | – | > 100 µM | – | – | – | – | – | – | – | 54.8 | – | – | – | – | – | –
13 | O=C1C(=O)N(C(=O)c2ccc(Cl)c(Cl)c2)c2ccccc21 | – | – | > 100 µM | – | > 100 | > 100 µM | > 100 | – | – | – | – | – | – | – | – | – | – | – | – | –
14 | O=c1oc2cc(OS(=O)(=O)c3ccc(F)cc3)ccc2c2c1CCCCC2 | > 100 µM | > 100 | > 100 µM | > 100 µM | – | > 100 µM | > 100 | > 100 | > 100 | > 100 µM | > 100 µM | > 100 µM | 45.1 | > 100 | > 100 µM | – | > 100 µM | > 100 | > 100 µM | > 100 µM
15 | COc1ccc(Cl)cc1Nc1nc(C(F)(F)F)ccc1C(=O)N/N=C/c1c(Cl)cccc1Cl | > 100 µM | > 100 | > 100 µM | > 100 µM | 6.17 | > 100 µM | – | 5.91 | > 100 | 5.62 µM | 8.78 µM | 8.49 µM | 1.35 | > 100 | 9.74 µM | 1.04 µM | 14.5 µM | > 100 | 8.01 µM | –
16 | C=CCC(NC(=O)OC(C)(C)C)C(=O)NC(CCC(=O)OCc1ccc([N+](=O)[O-])cc1)C(N)=O (stereo not drawn) (Boc-[AllylGly]-Glu(ONb)-NH2; configuration not given here) | 68.8 µg/mL | – | 52 µg/mL | 54.5 µg/mL | – | 33.3 µg/mL | – | – | – | 26.5 µg/mL | 57.5 µg/mL | 21.9 µg/mL | – | – | 19.1 µg/mL | 31.8 µg/mL | 93 µg/mL | – | 18.1 µg/mL | 34.1 µg/mL
17 | N#CCC1COc2ccccc2O1 (stereo not drawn) | – | > 10 | > 10 µM | > 10 µM | > 10 | > 10 µM | > 10 | – | > 10 | – | – | – | – | > 10 | – | – | – | > 10 | – | –
18 | CC(=O)O/C=C(/C=C/OC(C)=O)C(C/C=C(\C)C#CC=C(C)C)OC(C)=O (stereo not drawn) | > 100 µM | > 100 | > 100 µM | > 100 µM | > 100 | > 100 µM | 95.6 | – | – | – | – | – | – | > 100 | – | – | – | – | – | –
19 | COC(=O)N[C@H]1CCc2c(Br)c(OC)c(OC)c(OC)c2-c2ccc(SC)c(=O)cc21 | – | 25.5 | 24.8 µM | 21.9 µM | 24.9 | 25.4 µM | > 39.5 | < 0.01 | 0.145 | – | < 0.01 µM | < 0.0163 µM | < 0.01 | > 100 | < 0.0209 µM | < 0.01 µM | < 0.01 µM | 14 | < 0.01 µM | < 0.01 µM
